What was measured:
[1] = tested on: Tspan4-GFP-expressing NRK cells; conditions: sodium chloride in DPBS replaced by chloride of the cation at equal molar concentration; five-step hypotonic stimulation
Description: Next, the effect of different cations on the formation of engineered migrasomes was tested.

[2] = tested on: Tspan4-GFP-expressing NRK cells; assay: Formation of engineered migrasomes after latrunculin A treatment and step-wise hypotonic stimulation; type: cell-based, rat; conditions: latrunculin A 0.25, 0.5, 1 μM in DPBS 10 min, then three-step hypotonic stimulation; promotion dose-dependent
Description: The results after step-wise hypotonic treatment were shown in FIG. 2A, and the statistical results of the number of engineered migrasomes produced per cell were shown in FIG. 2B.

SMILES	ability to promote the formation of engineered migrasomes [1]	number of engineered migrasomes produced per cell [2]
[Cl-].[Na+] [sodium ions, sodium chloride]	relatively weak ability	–
C/C1=C/C(=O)O[C@@H]2C[C@@H](CC[C@H](C)/C=C\C=C\CC1)O[C@@](O)([C@@H]1CSC(=O)N1)C2 [latrunculin A]	–	significantly promote an increase in the number of engineered migrasomes
[Cl-].[Cs+] [cesium ions, cesium chloride]	significantly stronger ability	–
C[N+](C)(C)CCO.[Cl-] [choline ions, choline chloride]	significantly stronger ability	–
[Cl-].[K+] [potassium ions, potassium chloride]	significantly stronger ability	–

Reference: patent US12221631B2, “Engineered migrasome, method for preparing same, and uses thereof” (priority 2021, dated 2025)
